Here are results for 41 compounds from patent US20240124442A1, “TRICYCLIC-AMIDO-BICYCLIC PRMT5 INHIBITORS” (AMGEN INC., priority 2021, published 2024).

Read-outs that look alike come from different tables or passages of the source.

One assay has as its system HCT116 MTAP null cells. Nature of the assay: HCT116 MTAP null cell line proliferation / cell viability (CellTiter-Glo, 6 days). The format is cell-based. The note with it: HCT116 MTAP null cells, 6 days treatment, CellTiter-Glo cell viability, read-out: HCT-116 MTAP null IC50. The gist of the method: (§1)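 Isogenic HCT116 parent and MTAP-knockout cells in RPMI 1640 + 10% FBS, plated overnight, then exposed to compound for 6 days (37 °C, 5% CO2). Viability by CellTiter-Glo luminescence. Dilutions: 8–9 points from 1 or 10 μM (1:3), or 22 points from 10 or 50 μM (1:2); IC50 by 4-parameter or Hill −1 fit.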

A further assay relates to HCT116 WT cells. Briefly: HCT116 WT (parent) cell line proliferation / cell viability (CellTiter-Glo, 6 days). The note with it: 6 days treatment. The class given is cell-based. In short, it runs like this: as §1

For `CN(C(=O)c1ccc2nc(N)c3c(c2c1)COC3)[C@H]1COc2cc([N+](=O)[O-])ccc21` (single isomer, unassigned) [Example 320], the concentration for half-maximal inhibition (IC50) came out at 3660 nM in the assay on HCT116 MTAP null cells and 36400 nM in the assay with HCT116 WT cells (read-out: HCT-116 WT IC50).
As for `[2H]C([2H])([2H])N(C(=O)c1ccc2nc(N)c3c(c2c1)COC3)[C@H]1COc2cc(C(F)(F)F)ccc21` (single isomer, unassigned) [Example 321], the IC50 in the assay with HCT116 MTAP null cells (144 h) was 2660 nM; in the assay with HCT116 WT cells (Homo sapiens, HCT-116, 144 h) it was 20100 nM.
`[2H]C([2H])([2H])N(C(=O)c1ccc2nc(N)c3c(c2c1)COC3)[C@@H]1COc2cc(C(F)(F)F)ccc21` (single isomer, unassigned) [Example 322]: the IC50 with HCT116 MTAP null cells (144 h) stood at 41 nM; with HCT116 WT cells (Homo sapiens, HCT-116, 144 h) it was 1390 nM.
In the same order, the values of `CN(C(=O)c1ccc2nc(N)c3c(c2c1)COC3)[C@@H]1COc2cc(S(C)(=O)=O)ccc21` (single isomer, unassigned) [Example 323] are 76 nM and 3450 nM.
On the same counts, the results for `CN(C(=O)c1ccc2nc(N)c3c(c2c1)COC3)[C@H]1COc2cc(S(C)(=O)=O)ccc21` (single isomer, unassigned) [Example 324] are 5320 nM and 50000 nM.
On the same counts, the results for `CN(C(=O)c1ccc2nc(N)c3c(c2c1)COC3)[C@@H]1COc2cc(C(F)(F)F)cc(F)c21` (single isomer, unassigned) [Example 325] are 68 nM and 4160 nM.
As for `CN(C(=O)c1ccc2nc(N)c3c(c2c1)COC3)[C@H]1COc2cc(C(F)(F)F)cc(F)c21` (single isomer, unassigned) [Example 326], the IC50 in the assay on HCT116 MTAP null cells (144 h) was found to be 1780 nM; in the assay with HCT116 WT cells (Homo sapiens, HCT-116, 144 h), 20600 nM.
In the same order, the values of `CN(C(=O)c1ccc2nc(N)c3c(c2c1)COC3)[C@@H]1COc2cc(S(F)(F)(F)(F)F)ccc21` (single isomer, unassigned) [Example 327] are 11 nM and 457 nM.
With `CN(C(=O)c1ccc2nc(N)c3c(c2c1)COC3)[C@H]1COc2cc(S(F)(F)(F)(F)F)ccc21` (single isomer, unassigned) [Example 328], the IC50 with HCT116 MTAP null cells (144 h) was found to be 2160 nM; in the assay with HCT116 WT cells (Homo sapiens, HCT-116, 144 h), 10100 nM.
In the same order, the values of `CN(C(=O)c1ccc2nc(N)c3c(c2c1)COC3)[C@@H]1COc2cc(Br)ccc21` (single isomer, unassigned) [Example 329] are 46 nM and 1820 nM.
With `CN(C(=O)c1ccc2nc(N)c3c(c2c1)COC3)[C@H]1COc2cc(Br)ccc21` (single isomer, unassigned) [Example 330], the IC50 with HCT116 MTAP null cells (144 h) was 1610 nM; in the assay with HCT116 WT cells (Homo sapiens, HCT-116, 144 h), 22900 nM.
On the same counts, the results for `C[C@H]1OCc2c1c(N)nc1ccc(C(=O)N(C)[C@@H]3COc4cc(Br)ccc43)cc21` (single isomer, unassigned) [Example 331] are 26 nM and 2240 nM.
In the same order, the values of `C[C@H]1OCc2c1c(N)nc1ccc(C(=O)N(C)[C@H]3COc4cc(Br)ccc43)cc21` (single isomer, unassigned) [Example 332] are 920 nM and 22300 nM.
On the same counts, the results for `CN(C(=O)c1cc2c3c(c(N)nc2cn1)COC3)[C@@H]1COc2cc(Cl)ccc21` (single isomer, unassigned) [Example 333] are 173 nM and 8480 nM.
With `CN(C(=O)c1cc2c3c(c(N)nc2cn1)COC3)[C@H]1COc2cc(Cl)ccc21` (single isomer, unassigned) [Example 334], the IC50 in the assay on HCT116 MTAP null cells (144 h) was determined as 11900 nM; in the assay with HCT116 WT cells (Homo sapiens, HCT-116, 144 h), 50000 nM.
As for `CN(C(=O)c1cc2c3c(c(N)nc2cn1)COC3)[C@@H]1COc2nc(C(F)(F)F)ccc21` (single isomer, unassigned) [Example 335], the IC50 in the assay with HCT116 MTAP null cells (144 h) came to 272 nM; with HCT116 WT cells (Homo sapiens, HCT-116, 144 h), 10900 nM.
Turning to `CN(C(=O)c1cc2c3c(c(N)nc2cn1)COC3)[C@H]1COc2nc(C(F)(F)F)ccc21` (single isomer, unassigned) [Example 336], the IC50 in the assay on HCT116 MTAP null cells (144 h) was 11900 nM; in the assay on HCT116 WT cells (Homo sapiens, HCT-116, 144 h), 50000 nM.
For the compound `[2H]C([2H])([2H])N(C(=O)c1cc2c3c(c(N)nc2cn1)COC3)[C@@H]1COc2cc(C(F)(F)F)ccc21` (single isomer, unassigned) [Example 337], the IC50 in the assay on HCT116 MTAP null cells (144 h) came out at 41 nM; with HCT116 WT cells (Homo sapiens, HCT-116, 144 h), 2090 nM.
On to `[2H]C([2H])([2H])N(C(=O)c1cc2c3c(c(N)nc2cn1)COC3)[C@H]1COc2cc(C(F)(F)F)ccc21` (single isomer, unassigned) [Example 338], for which the IC50 was determined as 4680 nM with HCT116 MTAP null cells (144 h) and 37500 nM with HCT116 WT cells (Homo sapiens, HCT-116, 144 h).
On the same counts, the results for `CN(C(=O)c1cc2c3c(c(N)nc2cn1)COC3)[C@@H]1COc2cc(S(C)(=O)=O)ccc21` (single isomer, unassigned) [Example 339] are 237 nM and 8780 nM.
On the same counts, the results for `CN(C(=O)c1cc2c3c(c(N)nc2cn1)COC3)[C@H]1COc2cc(S(C)(=O)=O)ccc21` (single isomer, unassigned) [Example 340] are 7320 nM and 50000 nM.
With `CN(C(=O)c1cc2c3c(c(N)nc2cn1)COC3)[C@@H]1CCc2cc(OC(F)(F)F)ccc21` (single isomer, unassigned) [Example 341], the half-maximal inhibitory concentration (IC50) with HCT116 MTAP null cells (144 h) is 184 nM; with HCT116 WT cells (Homo sapiens, HCT-116, 144 h), 6240 nM.
Consider `CN(C(=O)c1cc2c3c(c(N)nc2cn1)COC3)[C@H]1CCc2cc(OC(F)(F)F)ccc21` (single isomer, unassigned) [Example 342], for which the IC50 with HCT116 MTAP null cells (144 h) is 4440 nM; in the assay on HCT116 WT cells (Homo sapiens, HCT-116, 144 h), 28000 nM.
On the same counts, the results for `CN(C(=O)c1cc2c3c(c(N)nc2cn1)COC3)[C@@H]1COc2cc(S(F)(F)(F)(F)F)ccc21` (single isomer, unassigned) [Example 343] are 19 nM and 581 nM.
On the same counts, the results for `CN(C(=O)c1cc2c3c(c(N)nc2cn1)COC3)[C@H]1COc2cc(S(F)(F)(F)(F)F)ccc21` (single isomer, unassigned) [Example 344] are 1060 nM and 19400 nM.
On the same counts, the results for `CN(C(=O)c1cc2c3c(c(N)nc2cn1)COC3)[C@@H]1COc2cc(Br)ccc21` (single isomer, unassigned) [Example 345] are 91 nM and 5440 nM.
As to `CN(C(=O)c1cc2c3c(c(N)nc2cn1)COC3)[C@H]1COc2cc(Br)ccc21` (single isomer, unassigned) [Example 346], the IC50 with HCT116 MTAP null cells (144 h) is 6010 nM; in the assay with HCT116 WT cells (Homo sapiens, HCT-116, 144 h) it was 37000 nM.
Regarding `CN(C(=O)c1cc2c3c(c(N)nc2cc1F)COC3)[C@@H]1COc2cc(Cl)ccc21` (single isomer, unassigned) [Example 347], the IC50 in the assay with HCT116 MTAP null cells (144 h) amounted to 86 nM; in the assay with HCT116 WT cells (Homo sapiens, HCT-116, 144 h) it was 3220 nM.
Take `CN(C(=O)c1cc2c3c(c(N)nc2cc1F)COC3)[C@H]1COc2cc(Cl)ccc21` (single isomer, unassigned) [Example 348]: the IC50 came out at 1900 nM with HCT116 MTAP null cells (144 h) and 23400 nM in the assay with HCT116 WT cells (Homo sapiens, HCT-116, 144 h).
In the same order, the values of `CN(C(=O)c1cc2c3c(c(N)nc2cc1F)COC3)[C@@H]1CCc2nc(C(F)(F)F)ccc21` (single isomer, unassigned) [Example 349] are 39 nM and 2240 nM.
On the same counts, the results for `CN(C(=O)c1cc2c3c(c(N)nc2cc1F)COC3)[C@H]1CCc2nc(C(F)(F)F)ccc21` (single isomer, unassigned) [Example 350] are 3160 nM and 50000 nM.
On to `CN(C(=O)c1cc2c3c(c(N)nc2cc1F)COC3)[C@@H]1COc2nc(C(F)(F)F)ccc21` (single isomer, unassigned) [Example 351], for which the IC50 in the assay with HCT116 MTAP null cells (144 h) amounted to 83 nM; with HCT116 WT cells (Homo sapiens, HCT-116, 144 h), 2850 nM.
In the same order, the values of `CN(C(=O)c1cc2c3c(c(N)nc2cc1F)COC3)[C@H]1COc2nc(C(F)(F)F)ccc21` (single isomer, unassigned) [Example 352] are 3250 nM and 50000 nM.
On the same counts, the results for `CN(C(=O)c1cc2c3c(c(N)nc2cc1F)COC3)[C@@H]1COc2cc(S(C)(=O)=O)ccc21` (single isomer, unassigned) [Example 353] are 32 nM and 1380 nM.
With `CN(C(=O)c1cc2c3c(c(N)nc2cc1F)COC3)[C@H]1COc2cc(S(C)(=O)=O)ccc21` (single isomer, unassigned) [Example 354], the IC50 came to 3870 nM in the assay on HCT116 MTAP null cells (144 h) and 50000 nM with HCT116 WT cells (Homo sapiens, HCT-116, 144 h).
On the same counts, the results for `CN(C(=O)c1cc2c3c(c(N)nc2cc1F)COC3)[C@@H]1COc2cc(C(F)(F)F)cc(F)c21` (single isomer, unassigned) [Example 355] are 26 nM and 1180 nM.
As for `CN(C(=O)c1cc2c3c(c(N)nc2cc1F)COC3)[C@H]1COc2cc(C(F)(F)F)cc(F)c21` (single isomer, unassigned) [Example 356], the IC50 in the assay on HCT116 MTAP null cells (144 h) came out at 1040 nM; in the assay on HCT116 WT cells (Homo sapiens, HCT-116, 144 h), 11300 nM.
On the same counts, the results for `CN(C(=O)c1cc2c3c(c(N)nc2cc1F)COC3)[C@@H]1COc2cc(S(F)(F)(F)(F)F)ccc21` (single isomer, unassigned) [Example 357] are 12 nM and 208 nM.
In the same order, the values of `CN(C(=O)c1cc2c3c(c(N)nc2cc1F)COC3)[C@H]1COc2cc(S(F)(F)(F)(F)F)ccc21` (single isomer, unassigned) [Example 358] are 1200 nM and 8850 nM.
On the same counts, the results for `C[C@H]1OCc2c1c(N)nc1cc(F)c(C(=O)N(C)[C@@H]3CCc4nc(C(F)(F)F)ccc43)cc21` (single isomer, unassigned) [Example 359] are 17 nM and 1230 nM.
With `C[C@H]1OCc2c1c(N)nc1cc(F)c(C(=O)N(C)[C@H]3CCc4nc(C(F)(F)F)ccc43)cc21` (single isomer, unassigned) [Example 360], the IC50 in the assay on HCT116 MTAP null cells (144 h) came to 810 nM; in the assay with HCT116 WT cells (Homo sapiens, HCT-116, 144 h), 42300 nM.
